Literature values as cited in patent publication US20090220618A1, “PHARMACEUTICAL FORMULATIONS COMPRISING POLYANIONIC MATERIALS AND SOURCE OF HYDROGEN PEROXIDE” (priority 2008, published 2009).

Experiments:
[1] = at 25° C.
[2] = tested on: sensitive tissues of the eye

Row | Compound | pKa [1] | concentration causing apoptosis [2] | concentration causing growth arrest [2] | concentrations causing necrosis [2]
1 | CC(C)(CO)NCC(O)CS(=O)(=O)O (stereo not drawn) [AMP SO] | 9.0 |  |  | 
2 | O=S(=O)(O)CC(O)CN(CCO)CCO (stereo not drawn) [DIPSO] | 7.52 |  |  | 
3 | O=S(=O)(O)CCCCNC(CO)(CO)CO [TABS, N-tris(hydroxymethyl)methyl-4-aminobutanesulfonic acid] | 8.9 |  |  | 
4 | benzalkonium chloride [BAK] |  | 0.01% | 0.00001% | 0.05-0.1%
